These results are taken from patent publication US8119624B2, “Fused phenyl amido heterocyclic compounds” (Pfizer Inc., priority 2006, dated 2012).

For orientation: EC50 means the concentration needed to bring the measured effect to its halfway point.

The assay concerns the target T1, Full-length glucokinase (beta cell isoform) (Homo sapiens, UniProt P35557).
T1 construct: Full-length glucokinase (beta cell isoform) was His-tagged at N-terminus; His tag (N); made in house
T1 sequence (P35557 1-465): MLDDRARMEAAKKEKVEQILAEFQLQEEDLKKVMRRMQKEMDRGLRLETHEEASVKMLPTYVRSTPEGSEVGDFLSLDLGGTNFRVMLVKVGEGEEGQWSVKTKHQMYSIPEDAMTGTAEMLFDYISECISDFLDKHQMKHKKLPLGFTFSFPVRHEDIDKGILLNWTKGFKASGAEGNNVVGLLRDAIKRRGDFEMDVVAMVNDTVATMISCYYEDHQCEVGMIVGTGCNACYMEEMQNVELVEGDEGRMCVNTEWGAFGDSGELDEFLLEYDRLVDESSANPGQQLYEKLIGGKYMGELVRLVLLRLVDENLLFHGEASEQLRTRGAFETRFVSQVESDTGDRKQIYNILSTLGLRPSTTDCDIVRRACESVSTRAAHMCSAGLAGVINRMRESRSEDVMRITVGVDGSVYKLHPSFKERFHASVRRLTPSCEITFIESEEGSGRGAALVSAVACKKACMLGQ
In words: Glucokinase biochemical assay (PK/LDH-coupled, NADH depletion at 340 nm): % activation, EC50, % max activation. As to conditions: 5 mM glucose; for activation at 10 µM / % Activation at 10 uM: 10 uM compound, % Activation=(Va/Vo−1)×100; for activation at 10 µM: read-out: % Activation at 10 uM; for EC50: GK activation, read-out: EC50; for Emax / % Max Activation: fitted maximum activation; for Emax: read-out: % Max Activation. How it is done: Full-length glucokinase (beta cell isoform) was His-tagged at N-terminus and purified by a Ni column followed by size exclusion chromatography. Glucose was obtained from Calbiochem, and other reagents were from Sigma.
All assays were performed in a Corning 96-well plate using Spectramax PLUS spectrophotometer (Molecular Devices) at room temperature. The final assay volume was 100 uL. The buffer conditions used in this assay were as follows: 50 mM HEPES, 5 mM glucose, 1 mM ATP, 2 mM MgCl2, 0.7mM NADH, 2 mM DTT, 1 Unit/mL PK/LDH, 0.2 mM phosphoenolpyruvate, 25 mM KCl. Tested compound in DMSO solution was added to the buffer and mixed well by a plate shaker for 1 minute. The final concentration of DMSO introduced into the assay was 1%.
Glucokinase was added to the buffer mixture to initiate the reaction in the presence and absence of compound. Reaction was monitored by absorbance at 340nm due to the depletion of NADH. The initial reaction velocity was measured by the slope of a linear time course of 200-900 sec.
The percentage of activation was calculated by the following equation: % Activation=(Va/Vo−1)×100;
wherein each of Va and Vo is defined as the initial reaction velocity in the presence and absence of the tested compound, respectively.
The GK activities were measured as a function of compound concentrations.

`CCOCC1Cc2c(OC(C)C)cc(C(=O)Nc3ccn(C)n3)cc2O1` (stereo not shown) [Example 217, 2-Ethoxymethyl-4-isopropoxy-2,3-dihydro-benzofuran-6-carboxylic acid (1-methyl-1H-pyrazol-3-yl)-amide]: the activation at 10 µM amounted to 5.3%.

Turning to `COC(C)CCOc1cc(C(=O)Nc2ccn(C)n2)cc2c1CC(C)(C)O2` (stereo not shown) [Example 101, 4-(3-Methoxy-butoxy)-2,2-dimethyl-2,3-dihydro-benzofuran-6-carboxylic acid (1-methyl-1H-pyrazol-3-yl)-amide], the activation at 10 µM is 94.7%, the half-maximal effective concentration (EC50) amounted to 6000 nM and the Emax is 125%.

Turning to `Cc1ccc(NC(=O)c2cc(Oc3ccc(S(C)(=O)=O)cc3)c3cc(CO)oc3c2)nc1` [Example 316, 2-(Hydroxymethyl)-N-(5-methylpyridin-2-yl)-4-(4-(methylsulfonyl)-phenoxy)benzofuran-6-carboxamide], the activation at 10 µM was determined as 73.7%, the EC50 was found to be 410 nM and the Emax came out at 78%.

With `CN(CCO)C(=O)c1ccc(Oc2cc(C(=O)Nc3ccn(C)n3)cc3c2CC(C)(C)O3)cc1F` [Example 66, 4-{3-Fluoro-4-[(2-hydroxy-ethyl)-methyl-carbamoyl]-phenoxy}-2,2-dimethyl-2,3-dihydro-benzofuran-6-carboxylic acid(1-methyl-1H-pyrazol-3-yl)-amide], the activation at 10 µM was determined as 149%, the EC50 turned out to be 410 nM and the Emax is 168%.

Take `Cn1ncc(NC(=O)c2cc(Oc3ccc(-c4ncon4)cc3)c3c(c2)OC(C)(C)C3)n1` [Example 188, 2,2-Dimethyl-4-(4-[1,2,4]oxadiazol-3-yl-phenoxy)-2,3-dihydro-benzofuran-6-carboxylic acid (2-methyl-2H-[1,2,3]triazol-4-yl)-amide]: the activation at 10 µM was found to be 198%, the 50% effective concentration (EC50) is 620 nM and the Emax was determined as 230%.

Consider `COCC1(C)Cc2c(Oc3ccc(S(=O)(=O)C4CC4)cc3)cc(C(=O)Nc3cnn(C)n3)cc2O1` (single isomer, unassigned; (+)) [Example 250, (+)-4-(4-Cyclopropanesulfonyl-phenoxy)-2-methoxymethyl-2-methyl-2,3-dihydro-benzofuran-6-carboxylic acid (2-methyl-2H-[1,2,3]triazol-4-yl)-amide], for which the “% Activation at 10 uM” value is on record as 227%, the 50% effective concentration (EC50) worked out at 420 nM and the “% Max Activation” value was 246%.

Regarding `CN(C)C(=O)c1ncc(Oc2cc(C(=O)Nc3ccn(C)n3)cc3c2CC(C)(C)O3)cn1` [Example 164, 5-[2,2-Dimethyl-6-(1-methyl-1H-pyrazol-3-ylcarbamoyl)-2,3-dihydro-benzofuran-4-yloxy]-pyrimidine-2-carboxylic acid dimethylamide], the activation at 10 µM was determined as 112%, the EC50 worked out at 250 nM and the Emax was 102%.

For the compound `CN(C)S(=O)(=O)c1ccc(Oc2cc(C(=O)Nc3ccn(C)n3)cc3c2CC(C)(C)O3)cc1` [Example 122, 4-(4-Dimethylsulfamoyl-phenoxy)-2,2-dimethyl-2,3-dihydro-benzofuran-6-carboxylic acid (1-methyl-1H-pyrazol-3-yl)-amide], the activation at 10 µM was found to be 184%, the EC50 was 100 nM and the Emax was determined as 159%.

In the case of `Cn1ccc(NC(=O)c2cc(Oc3ccc(C(=O)N4CCC4)c(F)c3)c3c(c2)OC(CO)C3)n1` (stereo not shown) [Example 202, 4-[4-(Azetidine-1-carbonyl)-3-fluoro-phenoxy]-2-hydroxymethyl-2,3-dihydro-benzofuran-6-carboxylic acid (1-methyl-1H-pyrazol-3-yl)-amide], the activation at 10 µM was 121%, the EC50 was found to be 360 nM and the Emax was 108%.

Take `Cn1ccc(NC(=O)c2cc(Oc3cnc(C(=O)N4CCC4)c(F)c3)c3c(c2)OC(C)(C)C3)n1` [Example 173, 4-[6-(Azetidine-1-carbonyl)-5-fluoro-pyridin-3-yloxy]-2,2-dimethyl-2,3-dihydro-benzofuran-6-carboxylic acid (1-methyl-1H-pyrazol-3-yl)-amide]: the activation at 10 µM worked out at 159%, the EC50 amounted to 68 nM and the Emax was 148%.

Regarding `CC1(C)Cc2c(OCc3ccccc3)cc(C(=O)Nc3ccc(C(=O)O)cn3)cc2O1` [Example 77, 6-[(4-Benzyloxy-2,2-dimethyl-2,3-dihydro-benzofuran-6-carbonyl)-amino]-nicotinic acid], the activation at 10 µM was found to be 64.4%, the EC50 worked out at 150 nM and the Emax was 66%.

Consider `Cn1ccc(NC(=O)c2cc(Oc3ccc(C(=O)Nc4ccn(C)n4)nc3)c3c(c2)OC(C)(C)C3)n1` [Example 163, 5-[2,2-Dimethyl-6-(1-methyl-1H-pyrazol-3-ylcarbamoyl)-2,3-dihydro-benzofuran-4-yloxy]-pyridine-2-carboxylic acid (1-methyl-1H-pyrazol-3-yl)-amide], for which the activation at 10 µM came out at 118%, the EC50 was determined as 440 nM and the Emax was found to be 137%.

In the case of `CNC(=O)c1ccc(Oc2cc(C(=O)Nc3cnn(C)n3)cc3c2CC(C)(C)O3)cn1` [Example 170, 5-[2,2-Dimethyl-6-(2-methyl-2H-[1,2,3]triazol-4-ylcarbamoyl)-2,3-dihydro-benzofuran-4-yloxy]-pyridine-2-carboxylic acid methylamide], the activation at 10 µM came to 264%, the EC50 worked out at 300 nM and the Emax was 255%.

Regarding `Cn1ccc(NC(=O)c2cc(Oc3ccc(C(=O)N4CCCC4)cc3)c3c(c2)OC(C)(C)C3)n1` [Example 48, 2,2-Dimethyl-4-[4-(pyrrolidine-1-carbonyl)-phenoxy]-2,3-dihydro-benzofuran-6-carboxylic acid(1-methyl-1H-pyrazol-3-yl)-amide], the activation at 10 µM worked out at 130%, the EC50 was determined as 142 nM and the Emax is 114%.

As to `CC(Oc1cc(C(=O)Nc2ccn(C)n2)cc2c1CC(C)(C)O2)c1ccncn1` (stereo not shown) [Example 86, 2,2-Dimethyl-4-(1-pyrimidin-4-yl-ethoxy)-2,3-dihydro-benzofuran-6-carboxylic acid (1-methyl-1H-pyrazol-3-yl)-amide], the activation at 10 µM came to 124%, the EC50 was 4800 nM and the Emax came to 159%.

Turning to `Cc1ccc(NC(=O)c2cc(Oc3ccc(S(C)(=O)=O)cc3)c3cc(CN(C)C)oc3c2)nc1` [Example 319, 2-[(Dimethylamino)methyl]-N-(5-methylpyridin-2-yl)-4-[4-(methylsulfonyl)-phenoxy]-1-benzofuran-6-carboxamide], the activation at 10 µM was determined as 59.7%, the EC50 turned out to be 5000 nM and the Emax was found to be 90%.

With `Cc1cc2cc(C(=O)Nc3ccn(C)n3)cc(Oc3ccc(S(C)(=O)=O)cc3)c2o1` [Example 338, 2-Methyl-N-(1-methyl-1H-pyrazol-3-yl)-7-[4-(methylsulfonyl)-phenoxy]-1-benzofuran-5-carboxamide], the activation at 10 µM is 84.5%, the EC50 was found to be 4300 nM and the Emax is 147%.

`CC1Cc2c(Oc3ccc(S(C)(=O)=O)cc3)cc(C(=O)Nc3ccn(C)n3)cc2O1` (single isomer, unassigned; (-)) [Example 12, (−)-4-(4-Methanesulfonyl-phenoxy)-2-methyl-2,3-dihydro-benzofuran-6-carboxylic acid(1-methyl-1H-pyrazol-3-yl)-amide]: the “% Activation at 10 uM” value stood at 162%, the EC50 worked out at 3000 nM and the “% Max Activation” value was found to be 195%.

On to `Cn1ccc(NC(=O)c2cc(Oc3ccc(C(=O)N4CC(F)(F)C4)cc3)c3c(c2)OC(C)(C)C3)n1` [Example 50, 4-[4-(3,3-Difluoro-azetidine-1-carbonyl)-phenoxy]-2,2-dimethyl-2,3-dihydro-benzofuran-6-carboxylic acid(1-methyl-1H-pyrazol-3-yl)-amide], for which the activation at 10 µM stood at 146%, the EC50 was found to be 564 nM and the Emax was 149%.

With `COCC1(C)Cc2c(Oc3ccc(C(=O)N4CCC4)c(F)c3)cc(C(=O)Nc3ccn(C)n3)cc2O1` (single isomer, unassigned; (-)) [Example 243, (−)-4-[4-(Azetidine-1-carbonyl)-3-fluoro-phenoxy]-2-methoxymethyl-2-methyl-2,3-dihydro-benzofuran-6-carboxylic acid (1-methyl-1H-pyrazol-3-yl)-amide], the activation at 10 µM was found to be 275%, the EC50 was 41 nM and the Emax turned out to be 218%.
